Literature values as cited in patent publication US20210236593A1, “METHODS OF SUPPORTING WEIGHT MAINTENANCE BY DECREASING THE ACTIVITY OF FAM46A” (SOCIETE DES PRODUITS NESTLE S.A., priority 2016, published 2021).
“Also recorded” adds a separate entry of the source. Structures can show the parent of a compound that is named as a salt.

Tested on: FAM46A
Settings: effect of the chemical on FAM46A expression
For Nc1ccccc1NC(=O)c1ccc(CNC(=O)OCc2cccnc2)cc1 [Entinostat, reference compound], the “Interaction Actions” value is listed as “Decreases expression”.
In the case of Nc1ccn([C@@H]2O[C@H](CO)[C@@H](O)[C@@H]2O)c(=O)n1 [Cytarabine, reference compound], the “Interaction Actions” value is listed as “Decreases expression”.
For OO [Hydrogen Peroxide], the “Interaction Actions” value is given as “Affects expression; also recorded: Decreases expression”.
For C=CC1(C)OC(=O)N(c2cc(Cl)cc(Cl)c2)C1=O (stereo not drawn) [Vinclozolin], the “Interaction Actions” value is given as “Affects expression; also recorded: Decreases expression”.
For CCCCOC(=O)c1ccccc1C(=O)OCCCC [Dibutyl Phthalate], the “Interaction Actions” value is listed as “Decreases expression”.
For N#Cc1nn(-c2c(Cl)cc(C(F)(F)F)cc2Cl)c(N)c1[S+]([O-])C(F)(F)F (stereo not drawn) [Fipronil], the “Interaction Actions” value is listed as “Decreases expression”.
In the case of Cc1cccc(Nc2cc(Cl)nc(SCC(=O)O)n2)c1C [Pirinixic acid, reference compound], the “Interaction Actions” value is given as “Decreases expression”.
For CN(C)C(=O)Nc1ccc(Cl)c(Cl)c1 [Diuron], the “Interaction Actions” value is listed as “Decreases expression”.
For O=C(NN=C1CCCCC1)C(=O)NN=C1CCCCC1 [Cuprizone, reference compound], the “Interaction Actions” value is listed as “Decreases expression”.
In the case of [CH3][Hg][Cl] [Methylmercuric chloride], the “Interaction Actions” value is given as “Decreases expression”.
For CC1=C(/C=C/C(C)=C/C=C/C(C)=C/C(=O)O)C(C)(C)CCC1 [Tretinoin, reference compound], the “Interaction Actions” value is listed as “Decreases expression”.
In the case of c1ccc2c(c1)cc1ccc3cccc4ccc2c1c34 [Benzo(a)pyrene], the “Interaction Actions” value is given as “Decreases expression”.
For CC(=O)Nc1ccc(O)cc1 [Acetaminophen, reference compound], the “Interaction Actions” value is listed as “Affects expression”.
In the case of CCc1nn(CCCN2CCN(c3cccc(Cl)c3)CC2)c(=O)n1CCOc1ccccc1 [Nefazodone, reference compound], the “Interaction Actions” value is listed as “Decreases expression”.
In the case of CC(/C=C/C(=O)NO)=C\[C@@H](C)C(=O)c1ccc(N(C)C)cc1 [Trichostatin A, reference compound], the “Interaction Actions” value is given as “Decreases expression”.
In the case of O=C(O)C(F)(F)C(F)(F)C(F)(F)C(F)(F)C(F)(F)C(F)(F)C(F)(F)C(F)(F)C(F)(F)C(F)(F)F [Perfluoro-n-undecanoic acid], the “Interaction Actions” value is listed as “Decreases expression”.
For CCOC(=O)/C=C\C(=O)OCC [Diethyl maleate], the “Interaction Actions” value is listed as “Decreases expression”.
In the case of CCCC(CCC)C(=O)O [Valproic Acid, reference compound], the “Interaction Actions” value is given as “Decreases expression”.
In the case of Cc1oncc1C(=O)Nc1ccc(C(F)(F)F)cc1 [Leflunomide, reference compound], the “Interaction Actions” value is given as “Decreases expression”.
In the case of Clc1cc2c(cc1Cl)Oc1cc(Cl)c(Cl)cc1O2 [Tetrachlorodibenzodioxin], the “Interaction Actions” value is given as “Decreases expression”.
In the case of NC(=O)N1c2ccccc2C=Cc2ccccc21 [Carbamazepine, reference compound], the “Interaction Actions” value is given as “Affects expression”.
